# Values of other authors in patent publication US10647965B2, “Hetero-transglycosylase and uses thereof” (BASF SE, priority 2013, dated 2020).
# Tested on: XTHs (xyloglucan endotransglucosylases)
# Settings: read-out: KM for XXXGol, comparison value, donor not stated
structure (smiles),measurement,value
"OC[C@@H](O)[C@@H](O[C@@H]1O[C@H](CO[C@H]2OC[C@@H](O)[C@H](O)[C@H]2O)[C@@H](O[C@@H]2O[C@H](CO[C@H]3OC[C@@H](O)[C@H](O)[C@H]3O)[C@@H](O[C@@H]3O[C@H](CO[C@H]4OC[C@@H](O)[C@H](O)[C@H]4O)[C@@H](O)[C@H](O)[C@H]3O)[C@H](O)[C@H]2O)[C@H](O)[C@H]1O)[C@H](O)[C@@H](O)CO [XXXGol, Xyl3.Glc3.glucitol]",Km,50 to 200 µM
